Here are results for 2 compounds from patent publication US6358948B1 (American Home Products Corporation, priority 1999, dated 2002).

For the test, the system named is T47D cells. Nature of the test: T47D cell proliferation assay (BrdU incorporation). It is filed as cell-based. Particulars: half-maximal increase in BrdU incorporation in T47D cells; individual studies. On the procedure: 3. T47D Cell Proliferation Assay
The objective of this assay is the determination of progestational and antiprogestational potency by using a cell proliferation assay in T47D cells. A compound's effect on DNA synthesis in T47D cells is measured.
DMEM:F12 (1:1) (GIBCO, BRL) supplemented with 10% (v/v) fetal bovine serum (not heat-inactivated), 100 U/ml penicillin, […], and 2 mM GlutaMax (GIBCO, BRL).
Minimum Essential Medium (MEM) (#51200-038GIBCO, BRL) phenol red-free supplemented with 0.5% charcoal stripped fetal bovine serum, 100 U/ml penicillin, 200 mg/ml streptomycin, and 2 mM GlutaMax (GIBCO, BRL).
Stock T47 D cells are maintained in growth medium. For BrdU incorporation assay, cells are plated in 96-well plates (Falcon, Becton Dickinson Labware) at 10,000 cells/well in growth medium. […]
At the end of BrdU labeling, the medium is removed and BrdU incorporation is measured using a cell proliferation ELISA kit (#RPN 250, Amersham Life Science) according to manufacturer's instructions. […] Then 25 μl of 1 M sulfuric acid is added to each well to stop color reaction and optical density is read in a plate reader at 450 nm within 5 min.
Square root-transformed data are used for analysis of variance and nonlinear dose response curve fitting for both agonist and antagonist modes. […] EC50 or IC50 values are calculated from the retransformed values. […]
On the technique in general: Dividing cells build labelled thymidine or BrdU into new DNA.

The term EC50 denotes the midpoint of the concentration-response curve.

Structures are written as SMILES. Values joined by “and” are separate entries in the source; they are usually repeats but may differ in a detail not shown here. Identical values can stand only once.

As for `C[C@H](O)C(=O)[C@@]1(C)CC[C@H]2[C@@H]3CCC4=CC(=O)CCC4=C3CC[C@@]21C` [Trimegestone], the EC50 is 17 pM and 14 pM and 19 pM.
Consider `CC(=O)O[C@]1(C(C)=O)CC[C@H]2[C@@H]3C[C@H](C)C4=CC(=O)CC[C@]4(C)[C@H]3CC[C@@]21C` [MPA, medroxyprogesterone acetate], for which the EC50 came out at 19 pM.
